Tests used:
[1] = test system: HUVEC; test: Antiinflammatory activity in HUVEC assessed as reduction in TNF-alpha induced ICAM1 protein expression at 5 uM incubated for 5 hrs followed by TNFalpha-induction and measured after 16 hrs by flow cytometric analysis relative to control; type: functional; conditions: Homo sapiens
[2] = test system: B16-F10; test: Antitumor activity against […] cells xenografted in C57BL/6 mouse assessed as reduction in tumor weight at 3.2 mg/kg, po measured after 14 days post transfection relative to control; type: functional; conditions: 336 h
[3] = Drug concentration in rat brain cortex at […], po after 1 hr; type: ADME, organism-based; conditions: read-out: Ct
[4] = test system: B16-F10; test: Antitumor activity against […] cells xenografted in C57BL/6 mouse assessed as reduction in tumor volume at 3.2 mg/kg, po measured after 14 days post transfection relative to control; type: functional; conditions: 336 h
[5] = Drug concentration in rat brain at 2 umol/kg, po after 2.5 hrs; type: ADME, organism-based; conditions: read-out: Ct
[6] = test system: B16-F10; test: Antitumor activity against […] cells xenografted in C57BL/6 mouse assessed as reduction in CXCL1 level at 3.2 mg/kg, po measured after 14 days post transfection relative to control; type: functional; conditions: 336 h
[7] = Plasma concentration in rat at 2 uM/kg, po after 2.5 hrs; type: ADME, organism-based; conditions: in vivo
[8] = test system: Caco-2; test: Antiproliferative activity against human Caco2 cells assessed as reduction in cell viability after 48 hrs by MTT assay; type: functional, cell-based; conditions: Caco-2, 48 h
[9] = species on record: Homo sapiens; test: Binding affinity to human LDL assessed per mg of protein
[10] = Drug concentration in rat brain cerebellum at […], po after 1 hr; type: ADME, organism-based; conditions: read-out: Ct

- concentration at 1 h [3]: 50 ng/g
- concentration at 2.5 h [5]: 20 ng/g
- Cp [7]: 0.2 µM
- IC50 [8]: 115 µM
- Bmax [9]: 0.52 nmol
- concentration at 1 h [10]: 90 ng/g
SMILES: O=C(O)C1=C/C(=C/C=[N+]2/CCC[C@H]2C(=O)[O-])C[C@@H](C(=O)O)N1
- inhibition at 5 µM [1]: -15%
- inhibition in vivo at 3.2 mg/kg [2]: 83%
- inhibition in vivo at 3.2 mg/kg [4]: 86%
- inhibition in vivo at 3.2 mg/kg [6]: 42%
